Columns and labels:
Purified pig DAAO = Purified pig DAAO (Sus scrofa, UniProt P00371); assay: In vitro measurement of DAAO activity (Amplex Red H2O2 / phenylglycine assay); type: biochemical; settings: read-out: Inhibition of DAAO, IC50
Experimental: Purified pig DAAO, added to a buffered mixture of 50 mM D-Serine produces H202 in stoichiometric amounts for each D-Serine molecule oxidized. H202 production can be monitored with a commercially available dye Amplex Red, which in the presence of H202, is converted to the fluorescent product resorufin. For each described inhibitor, the fluorescence was also measured during additions of 80 μM H202 in the absence of DAAO, to control for artifactual inhibition of the dye conversion, and to quantify the amount of H202 produced. In an alternative assay of DAAO activity, the purified pig DAAO is added to buffered mixture of 1 mM phenylglycine in the presence of compounds. The activity of DAAO is monitored spectrophotometrically by its enzymatic conversion of phenylglycine to benzoylformic acid with optical absorption at 252 nm.
Inhibitors of DAAO's enzymatic cycle were serially diluted to reduce the level of inhibition. The parameters of a non-linear equation were adjusted to fit the resulting series of inhibition levels to extrapolate the concentration of compound where 50% inhibition is achieved (IC50). These numbers are averaged for the number (n) of independent measurements (on separate days) of the inhibition.

[1] = Rat brain uptake, carotid perfusion; type: in vivo; settings: 30 second perfusion into left hemisphere, PBS pH 7.4; N of 4 rats
Excerpt: Experiments that evaluate the rat brain penetration of test compounds use a perfusion system where the left carotid artery is cannulated and the branch arteries are tied off. The test compound plus internal controls are perfused for 30 seconds into the left hemisphere in phosphate buffered saline at pH 7.4. The internal controls are atenolol (with low brain uptake) and antipyrine (with high brain uptake). After a 30 second washout with perfusate, the brain is removed surgically. The left hemisphere is homogenized; test compounds (plus internal controls) are extracted from brain homogenate, and analyzed using LC/MS/MS to determine the concentration of test compound and internal controls in the brain.

Purified pig DAAO, sequence (P00371 whole entry): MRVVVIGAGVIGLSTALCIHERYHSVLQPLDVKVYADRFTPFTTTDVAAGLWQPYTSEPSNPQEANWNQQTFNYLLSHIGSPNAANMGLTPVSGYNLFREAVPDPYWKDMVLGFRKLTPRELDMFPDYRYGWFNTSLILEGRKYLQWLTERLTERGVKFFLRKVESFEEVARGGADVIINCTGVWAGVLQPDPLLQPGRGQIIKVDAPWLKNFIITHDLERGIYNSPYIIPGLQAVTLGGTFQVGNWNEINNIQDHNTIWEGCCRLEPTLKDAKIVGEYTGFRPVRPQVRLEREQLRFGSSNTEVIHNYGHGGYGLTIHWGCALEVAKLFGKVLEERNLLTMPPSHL

| IC50 (Purified pig DAAO) [µM] | Rat Brain Uptake Rate, pmol/g brain/sec [1] [pmol/g brain/sec] | SMILES |
| --- | --- | --- |
| < 1 |  | O=C(O)c1cc(CCc2ccccc2)c[nH]1 |
| < 100 |  | CC1CCc2c(C(=O)O)n[nH]c2C1 (centres unmarked) |
| < 1 |  | O=C(O)c1n[nH]c2c1CCCC2 |
| < 1 |  | CC(C)c1cc(C(=O)O)n[nH]1 |
| < 1 |  | O=C(O)c1cc([N+](=O)[O-])[nH]n1 |
| < 1 |  | O=C(O)c1n[nH]cc1[N+](=O)[O-] |
| < 10 |  | CC1CCCc2c(C(=O)O)n[nH]c21 (centres unmarked) |
| < 100 |  | O=C(O)c1cc(CCc2ccccc2)on1 |
| < 100 |  | O=C(Cc1ccc(Cl)cc1)c1c[nH]c(C(=O)O)c1 |
| < 100 |  | Cc1cc(C(=O)O)no1 |
| < 100 |  | O=C(O)c1n[nH]c2c1CCCC2C1CCCCC1 (centres unmarked) |
| < 100 |  | O=C(O)c1cc[nH]n1 |
| < 100 |  | CCCCCCCCCCC(=O)c1c[nH]c(C(=O)O)c1 |
| < 10 |  | O=C(O)c1n[nH]c2c1CCCCCC2 |
| < 10 |  | Cc1cc(C(=O)O)n[nH]1 |
| < 10 |  | O=C(O)c1ccc[nH]1 |
| < 10 |  | O=C(O)c1cc2c([nH]1)CCCC2 |
| < 10 |  | O=C(O)c1n[nH]c2c1COCC2 |
| < 100 |  | CC(C)C1CCc2[nH]nc(C(=O)O)c2C1 (centres unmarked) |
| < 100 |  | O=C(O)c1n[nH]c2c1CCCC2CCc1ccccc1 (centres unmarked) |
| < 100 |  | O=C(O)c1n[nH]c2c1CC(OCc1ccccc1)CC2 (centres unmarked) |
| < 100 |  | O=C(Cc1ccccc1)c1c[nH]c(C(=O)O)c1 |
| < 100 |  | CC(=O)c1c[nH]c(C(=O)O)c1 |
| > 100 |  | Cc1cc(C)c(C(=O)O)[nH]1 |
| < 10 |  | O=C(O)c1n[nH]c2c1CCCC2Cc1ccccc1 (centres unmarked) |
| < 10 |  | CC1CCc2[nH]nc(C(=O)O)c2C1 (centres unmarked) |

| IC50 (Purified pig DAAO) [µM] | Rat Brain Uptake Rate, pmol/g brain/sec [1] [pmol/g brain/sec] | SMILES |
| --- | --- | --- |
| > 100 |  | O=C(O)c1n[nH]c2c1CCc1ccccc1-2 |
| < 10 |  | CC1(C)CCc2c(C(=O)O)n[nH]c21 [Compound 3, 6,6-Dimethyl-1,4,5,6-tetrahydrocyclopentapyrazole-3-carboxylic acid] |
| < 10 |  | CC1CCc2c(C(=O)O)n[nH]c21 (centres unmarked) [Compound 6, 6-methyl-1,4,5,6-tetrahydrocyclopentapyrazole-3-carboxylic acid] |
| < 10 |  | O=C(O)c1n[nH]c2c1CCCCC2 [Compound 15, 1,4,5,6,7,8-Hexahydrocycloheptapyrazole-3-carboxylic acid] |
| < 1 | 17 | CC(C)CCCc1cc(C(=O)O)n[nH]1 [Compound 18, 5-(4-methylpentyl)-1H-pyrazole-3-carboxylic acid] |
| < 1 | 6 | O=C(O)c1cc(CCc2ccccc2)[nH]n1 [Compound 21, 5-phenethyl-1H-pyrazole-3-carboxylic acid] |
| < 1 |  | COc1ccc(CCc2cc(C(=O)O)n[nH]2)cc1 [Compound 24, 5-[2-(4-Methoxyphenyl)-ethyl]-1H-pyrazole-3-carboxylic acid] |
| > 100 |  | O=C(O)c1ccc(Cc2ccccc2)[nH]1 [Compound 32, 5-benzyl-1H-pyrrole-2-carboxylic acid] |
| < 100 |  | O=C(O)c1ccc(CCc2ccccc2)[nH]1 [Compound 36, 5-phenethyl-1H-pyrrole-2-carboxylic acid] |
|  | 204 | O=C(O)c1cc(CCc2ccc(Cl)cc2)c[nH]1 [Compound 39, 4-[2-(4-chlorophenyl)-ethyl]-1H-pyrrole-2-carboxylic acid] |
| < 1 |  | O=C(O)c1cc(COc2ccccc2)[nH]n1 [Compound 42, 5-phenoxymethyl-1H-pyrazole-3-carboxylic acid] |
| < 100 |  | O=C(O)c1cc(CCCc2ccccc2)c[nH]1 [Compound 45, 4-(3-phenylpropyl)-1H-pyrrole-2-carboxylic acid] |
| < 10 |  | CC(C)CCc1cc(C(=O)O)n[nH]1 [Compound 48, 5-(3-methylbutyl)-1H-pyrazole-3-carboxylic acid] |
| < 1 |  | CC(C)=CCCc1cc(C(=O)O)n[nH]1 [Compound 51, 5-(4-Methylpent-3-enyl)-1H-pyrazole-3-carboxylic acid] |
| < 100 |  | CC1CCCC(C)(C)C1CCc1cc(C(=O)O)n[nH]1 (centres unmarked) [Compound 54, 5-[2-(2,2,6-trimethylcyclohexyl)-ethyl]-1H-pyrazole-3-carboxylic acid] |
| < 1 |  | CC(Cc1cc(C(=O)O)n[nH]1)c1ccccc1 (centres unmarked) [Compound 58, 5-(2-phenylpropyl)-1H-pyrazole-3-carboxylic acid] |
| < 1 |  | CC(Cc1ccccc1)c1cc(C(=O)O)n[nH]1 (centres unmarked) [Compound 62, 5-(1-methyl-2-phenylethyl)-1H-pyrazole-3-carboxylic acid] |
| < 1 |  | O=C(O)c1cc(CCc2ccccc2Br)c[nH]1 [Compound 65, 4-[2-(2-bromophenyl)-ethyl]-1H-pyrrole-2-carboxylic acid] |
| < 1 |  | O=C(O)c1cc(CCc2ccc(Cl)cc2)n[nH]1 [Compound 69, 5-[2-(4-Chlorophenyl)-ethyl]-1H-pyrazole-3-carboxylic acid] |
| < 0.1 |  | O=C(O)c1cc(CCc2ccc(Cl)cc2)c(Br)[nH]1 [Compound 70, 5-bromo-4-[2-(4-chlorophenyl)-ethyl]-1H-pyrrole-2-carboxylic acid] |
| < 1 |  | O=C(O)c1cc(CCc2ccc(F)cc2)c[nH]1 [Compound 73, 4-[2-(4-fluorophenyl)-ethyl]-1H-pyrrole-2-carboxylic acid] |
| < 10 |  | O=C(O)c1cc(CCCC2CCCC2)c[nH]1 [Compound 76, 4-(3-Cyclopentylpropyl)-1H-pyrrole-2-carboxylic acid] |
| < 10 |  | C[C@@H](Cc1cc(C(=O)O)n[nH]1)c1ccccc1 [Compound 80, (S)-5-(2-phenylpropyl)-1H-pyrazole-3-carboxylic acid] |
| < 1 |  | O=C(O)c1n[nH]c2c1CCC2 [drawing 44] |
|  | 6 | O=C(O)c1n[nH]c2c1CCC2 [drawing 70] |
